Data published in ChEMBL document CHEMBL6127020, “Discovery of aminopiperidine based potent & novel topoisomerase inhibitor with broad spectrum anti-bacterial activity” (Bioorg Med Chem Lett, 2024).
pIC50: −log10 of the molar value. Converted amounts (≈) assume the structure as drawn. Each block holds one compound with its values, some of them ahead of it.

Tests used:
Staphylococcus aureus [1] = assay: Antibacterial activity against Staphylococcus aureus ATCC 29213 assessed as inhibition of bacterial growth; type: functional
Escherichia coli [2] = assay: Antibacterial activity against Escherichia coli ATCC 25922 assessed as inhibition of bacterial growth; type: functional
Salmonella enterica = assay: Antibacterial activity against Salmonella enterica assessed as inhibition of bacterial growth; type: functional
[3] = Cmax in C57 mouse at 3 mg/kg,po administration; type: ADME, organism-based; details: in vivo
Enterococcus faecium = assay: Antibacterial activity against Enterococcus faecium assessed as inhibition of bacterial growth; type: functional
[4] = Plasma protein binding in human; type: ADME, cell-free; details: read-out: PPB (converted)
Cytochrome P450 2C8 = biological target: T1, Cytochrome P450 2C8 (Homo sapiens, UniProt P10632); assay: Inhibition of CYP2C8 (unknown origin) at 10 uM; type: ADME
T1 sequence (P10632 whole entry): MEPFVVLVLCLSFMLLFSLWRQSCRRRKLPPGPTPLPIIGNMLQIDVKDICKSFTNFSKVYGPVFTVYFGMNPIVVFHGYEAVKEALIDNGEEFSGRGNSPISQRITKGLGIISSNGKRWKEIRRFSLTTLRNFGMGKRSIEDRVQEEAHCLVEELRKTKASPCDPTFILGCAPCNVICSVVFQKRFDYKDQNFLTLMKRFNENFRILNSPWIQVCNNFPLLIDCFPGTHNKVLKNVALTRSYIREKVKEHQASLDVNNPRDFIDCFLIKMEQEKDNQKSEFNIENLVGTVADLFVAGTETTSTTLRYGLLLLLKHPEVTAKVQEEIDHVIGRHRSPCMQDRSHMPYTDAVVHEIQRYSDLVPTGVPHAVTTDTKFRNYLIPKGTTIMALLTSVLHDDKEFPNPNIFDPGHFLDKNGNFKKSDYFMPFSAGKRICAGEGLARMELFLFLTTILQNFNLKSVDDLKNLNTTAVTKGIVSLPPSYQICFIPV

Escherichia coli [5] = assay: Antibacterial activity against Escherichia coli assessed as inhibition of bacterial growth; type: functional
Cytochrome P450 3A4 = Cytochrome P450 3A4 (Homo sapiens, UniProt P08684); assay: Inhibition of CYP3A4 (unknown origin) at 10 uM; type: ADME
Cytochrome P450 3A4, sequence (P08684 whole entry): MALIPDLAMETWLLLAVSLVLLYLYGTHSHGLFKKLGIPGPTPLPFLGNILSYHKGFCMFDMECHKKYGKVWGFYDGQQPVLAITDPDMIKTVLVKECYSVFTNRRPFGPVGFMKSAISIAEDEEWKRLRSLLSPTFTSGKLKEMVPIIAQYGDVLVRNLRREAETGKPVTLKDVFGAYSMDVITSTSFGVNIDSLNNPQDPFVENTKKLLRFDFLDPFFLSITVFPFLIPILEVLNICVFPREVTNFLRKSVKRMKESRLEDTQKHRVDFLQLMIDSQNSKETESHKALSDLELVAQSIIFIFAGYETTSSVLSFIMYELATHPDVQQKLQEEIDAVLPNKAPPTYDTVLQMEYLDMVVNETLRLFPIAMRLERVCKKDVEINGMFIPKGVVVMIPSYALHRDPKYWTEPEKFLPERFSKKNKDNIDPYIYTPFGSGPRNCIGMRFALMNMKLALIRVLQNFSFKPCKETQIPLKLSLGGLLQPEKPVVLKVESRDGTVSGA

[6] = Aqueous solubility of compound; type: physicochemical; details: aqueous medium; read-out: solubility
[7] = C0 in C57 mouse at 1 mg/kg,iv administration; type: ADME, organism-based; details: in vivo
Helicobacter pylori = assay: Antibacterial activity against Helicobacter pylori assessed as inhibition of bacterial growth; type: functional
Streptococcus pneumoniae = assay: Antibacterial activity against Streptococcus pneumoniae assessed as inhibition of bacterial growth; type: functional
[8] = AUC (0 to t) in C57 mouse at 1 mg/kg,iv administration; type: ADME, organism-based; details: in vivo
[9] = MRT in C57 mouse at 1 mg/kg,iv administration; type: ADME, organism-based; details: in vivo
Staphylococcus aureus [10] = assay: Antibacterial activity against methicillin resistant Staphylococcus aureus assessed as inhibition of bacterial growth; type: functional
Cytochrome P450 1A2 = biological target: T2, Cytochrome P450 1A2 (Homo sapiens, UniProt P05177); assay: Inhibition of CYP1A2 (unknown origin) at 10 uM; type: ADME
T2 sequence (P05177 whole entry): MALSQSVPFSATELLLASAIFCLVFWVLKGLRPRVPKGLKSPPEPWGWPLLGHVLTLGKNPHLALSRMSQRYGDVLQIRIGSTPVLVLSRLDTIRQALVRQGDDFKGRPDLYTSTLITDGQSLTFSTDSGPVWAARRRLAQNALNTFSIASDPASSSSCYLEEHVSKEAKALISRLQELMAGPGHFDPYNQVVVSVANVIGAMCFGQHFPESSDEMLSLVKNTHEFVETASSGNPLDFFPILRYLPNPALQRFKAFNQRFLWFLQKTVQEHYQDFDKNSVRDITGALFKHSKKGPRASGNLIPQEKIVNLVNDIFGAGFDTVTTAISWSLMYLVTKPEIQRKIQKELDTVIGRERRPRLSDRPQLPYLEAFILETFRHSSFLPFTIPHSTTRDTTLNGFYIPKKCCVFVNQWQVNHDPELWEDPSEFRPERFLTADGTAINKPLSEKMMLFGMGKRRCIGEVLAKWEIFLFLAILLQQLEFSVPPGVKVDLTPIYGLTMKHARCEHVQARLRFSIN

Haemophilus influenzae = assay: Antibacterial activity against Haemophilus influenzae assessed as inhibition of bacterial growth; type: functional
Cytochrome P450 2C19 = Cytochrome P450 2C19 (Homo sapiens, UniProt P33261); assay: Inhibition of CYP2C19 (unknown origin) at 10 uM; type: ADME
Cytochrome P450 2C19, sequence (P33261 whole entry): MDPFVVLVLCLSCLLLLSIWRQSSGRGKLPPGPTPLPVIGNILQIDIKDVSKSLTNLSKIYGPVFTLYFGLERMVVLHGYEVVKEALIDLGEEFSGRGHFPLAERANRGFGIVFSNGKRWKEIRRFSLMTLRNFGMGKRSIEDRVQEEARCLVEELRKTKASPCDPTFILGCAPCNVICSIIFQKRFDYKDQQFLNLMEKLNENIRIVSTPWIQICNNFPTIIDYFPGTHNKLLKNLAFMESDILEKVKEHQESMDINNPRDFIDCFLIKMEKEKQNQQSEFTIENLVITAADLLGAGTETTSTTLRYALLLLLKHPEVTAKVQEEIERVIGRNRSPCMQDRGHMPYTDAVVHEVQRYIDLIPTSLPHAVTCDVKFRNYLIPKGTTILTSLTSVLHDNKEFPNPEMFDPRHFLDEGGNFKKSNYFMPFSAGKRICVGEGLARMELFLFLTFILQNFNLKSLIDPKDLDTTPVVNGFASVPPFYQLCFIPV

[11] = Clearance in C57 mouse at 1 mg/kg,iv administration; type: ADME, organism-based; details: in vivo
Pseudomonas aeruginosa = assay: Antibacterial activity against Pseudomonas aeruginosa assessed as inhibition of bacterial growth; type: functional
Enterococcus faecalis [12] = assay: Antibacterial activity against Enterococcus faecalis assessed as inhibition of bacterial growth; type: functional
Klebsiella pneumoniae = assay: Antibacterial activity against Klebsiella pneumoniae assessed as inhibition of bacterial growth; type: functional
Staphylococcus aureus [13] = assay: Antibacterial activity against Staphylococcus aureus assessed as inhibition of bacterial growth; type: functional
[14] = Half life in C57 mouse at 1 mg/kg,iv administration; type: ADME, organism-based; details: in vivo
Topoisomerase IV = Topoisomerase IV (Staphylococcus aureus, UniProt P0C1S7+P0C1U9); assay: Inhibition of Staphylococcus aureus DNA topoisomerase 4; type: protein-complex assay
Acinetobacter baumannii = assay: Antibacterial activity against Acinetobacter baumannii assessed as inhibition of bacterial growth; type: functional
[15] = AUC (0 to t) in C57 mouse at 3 mg/kg,po administration; type: ADME, organism-based; details: in vivo
[16] = Bioavailability in C57 mouse at 1 mg/kg,iv administration; type: ADME, organism-based; details: in vivo
[17] = Volume of distribution at steady state in C57 mouse at 1 mg/kg,iv administration; type: ADME, organism-based; details: in vivo, read-out: Vdss
Shigella flexneri = assay: Antibacterial activity against Shigella flexneri assessed as inhibition of bacterial growth; type: functional
Cytochrome P450 2D6 = Cytochrome P450 2D6 (Homo sapiens, UniProt P10635); assay: Inhibition of CYP2D6 (unknown origin) at 10 uM; type: ADME
Cytochrome P450 2D6, sequence (P10635 whole entry): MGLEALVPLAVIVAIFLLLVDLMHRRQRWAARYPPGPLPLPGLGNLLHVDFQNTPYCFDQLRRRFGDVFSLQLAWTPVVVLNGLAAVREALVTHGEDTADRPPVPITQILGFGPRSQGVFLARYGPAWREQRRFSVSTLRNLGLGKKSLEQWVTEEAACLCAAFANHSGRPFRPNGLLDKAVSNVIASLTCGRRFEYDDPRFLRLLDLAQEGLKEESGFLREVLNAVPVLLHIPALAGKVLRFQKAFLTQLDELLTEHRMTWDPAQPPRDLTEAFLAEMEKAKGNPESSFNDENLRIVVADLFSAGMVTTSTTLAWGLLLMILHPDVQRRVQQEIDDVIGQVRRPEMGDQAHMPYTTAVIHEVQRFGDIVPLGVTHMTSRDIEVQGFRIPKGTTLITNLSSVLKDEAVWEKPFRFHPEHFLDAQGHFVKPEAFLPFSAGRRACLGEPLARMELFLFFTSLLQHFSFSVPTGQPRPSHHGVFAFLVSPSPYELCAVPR

Salmonella typhimurium = assay: Antibacterial activity against Salmonella typhimurium assessed as inhibition of bacterial growth; type: functional, Salmonella enterica subsp. enterica serovar Typhimurium
DNA gyrase = DNA gyrase (Staphylococcus aureus, UniProt P0A0K8+P20831); assay: Inhibition of Staphylococcus aureus DNA gyrase; type: protein-complex assay
Streptococcus pyogenes = assay: Antibacterial activity against Streptococcus pyogenes assessed as inhibition of bacterial growth; type: functional
[18] = Tmax in C57 mouse at 3 mg/kg,po administration; type: ADME, organism-based; details: in vivo
[19] = Solubility of compound in PBS; type: physicochemical; details: PBS; read-out: solubility
Enterococcus faecalis [20] = assay: Antibacterial activity against vancomycin-resistant Enterococcus faecalis assessed as inhibition of bacterial growth; type: functional

SMILES: c1ccc2c(c1)c1ccccc1n2CCN1CCC(NCc2cc3c(cn2)OCCC3)CC1
MIC (Staphylococcus aureus [1]): > 16 µg/mL
MIC (Escherichia coli [2]): > 16 µg/mL

SMILES: N#Cc1ccc2ccc(=O)n(CCN3CCC(NCc4ccc5c(c4)NC(=O)CS5)CC3)c2c1
MIC (Salmonella enterica): 1 µg/mL (≈ 2.11 µM)
Cmax [3]: 22 ng/mL
MIC (Enterococcus faecium): 1 µg/mL (≈ 2.11 µM)
MIC90 (Enterococcus faecium): 1 µg/mL (≈ 2.11 µM)
fraction unbound [4]: 0.21
inhibition (INH) (Cytochrome P450 2C8): Not Active
MIC (Escherichia coli [5]): 0.125 µg/mL (≈ 0.264 µM)
MIC90 (Escherichia coli [5]): 2 µg/mL (≈ 4.22 µM)
inhibition (INH) (Cytochrome P450 3A4): Not Active
MIC (Staphylococcus aureus [1]): < 0.125 µg/mL
solubility [6]: 719 µg/mL (≈ 1520 µM)
C0 [7]: 1210 ng/mL
MIC (Helicobacter pylori): < 0.06 µg/mL
MIC (Streptococcus pneumoniae): 0.125 µg/mL (≈ 0.264 µM)
MIC90 (Streptococcus pneumoniae): 1 µg/mL (≈ 2.11 µM)
AUC(0-t) [8]: 206 ng·h/mL
MRT [9]: 3 h
MIC (Staphylococcus aureus [10]): 0.03 µg/mL (≈ 0.0633 µM)
MIC90 (Staphylococcus aureus [10]): 0.125 µg/mL (≈ 0.264 µM)
inhibition (INH) (Cytochrome P450 1A2): Not Active
MIC (Haemophilus influenzae): 2 µg/mL (≈ 4.22 µM)
inhibition (INH) (Cytochrome P450 2C19): Not Active
clearance [11]: 80 mL/min/kg
MIC (Pseudomonas aeruginosa): 0.125 µg/mL (≈ 0.264 µM)
MIC90 (Pseudomonas aeruginosa): 8 µg/mL (≈ 16.9 µM)
MIC (Enterococcus faecalis [12]): 0.5 µg/mL (≈ 1.06 µM)
MIC90 (Enterococcus faecalis [12]): 0.5 µg/mL (≈ 1.06 µM)
MIC90 (Klebsiella pneumoniae): 16 µg/mL (≈ 33.8 µM)
MIC (Staphylococcus aureus [13]): 0.016 µg/mL (≈ 0.0338 µM)
MIC90 (Staphylococcus aureus [13]): 0.125 µg/mL (≈ 0.264 µM)
half-life [14]: 2.5 h
pIC50 (Topoisomerase IV): 6.52
MIC (Acinetobacter baumannii): 0.125 µg/mL (≈ 0.264 µM)
MIC90 (Acinetobacter baumannii): 2 µg/mL (≈ 4.22 µM)
AUC(0-t) [15]: 110 ng·h/mL
bioavailability [16]: 18%
Vd [17]: 14 L/kg
MIC (Escherichia coli [2]): < 0.125 µg/mL
MIC (Shigella flexneri): 0.25 µg/mL (≈ 0.528 µM)
inhibition (INH) (Cytochrome P450 2D6): Not Active
MIC (Salmonella typhimurium): 2 µg/mL (≈ 4.22 µM)
pIC50 (DNA gyrase): 8.49
MIC (Streptococcus pyogenes): 0.15 µg/mL (≈ 0.317 µM)
MIC90 (Streptococcus pyogenes): 0.25 µg/mL (≈ 0.528 µM)
Tmax [18]: 3 h
solubility [19]: 611 µg/mL (≈ 1290 µM)
MIC (Enterococcus faecalis [20]): 0.25 µg/mL (≈ 0.528 µM)
MIC90 (Enterococcus faecalis [20]): 4 µg/mL (≈ 8.45 µM)

SMILES: O=S1(=O)c2ccccc2N(CCN2CCC(NCc3cc4c(cn3)OCCC4)CC2)c2ccccc21
MIC (Staphylococcus aureus [1]): > 16 µg/mL
MIC (Escherichia coli [2]): > 16 µg/mL

SMILES: O=c1ccn2nccc2n1CCN1CCC(NCc2cc3c(cn2)OCCC3)CC1
MIC (Staphylococcus aureus [1]): 2 µg/mL (≈ 4.9 µM)
MIC (Escherichia coli [2]): 8 µg/mL (≈ 19.6 µM)

SMILES: c1ccc2c(c1)Sc1ccccc1N2CCN1CCC(NCc2cc3c(cn2)OCCC3)CC1
MIC (Staphylococcus aureus [1]): 16 µg/mL (≈ 33.9 µM)
MIC (Escherichia coli [2]): > 16 µg/mL

SMILES: c1ccc2c(c1)-c1ccccc1C2CCN1CCC(NCc2cc3c(cn2)OCCC3)CC1
MIC (Staphylococcus aureus [1]): > 16 µg/mL
MIC (Escherichia coli [2]): > 16 µg/mL

SMILES: N#Cc1ccc2ccc(=O)n(CCN3CCC(NCc4ccc5c(c4)NC(=O)CO5)CC3)c2c1
inhibition (INH) (Cytochrome P450 2C8): Not Active
inhibition (INH) (Cytochrome P450 3A4): Not Active
inhibition (INH) (Cytochrome P450 1A2): Not Active
inhibition (INH) (Cytochrome P450 2C19): Not Active
pIC50 (Topoisomerase IV): 5.89
inhibition (INH) (Cytochrome P450 2D6): Not Active
pIC50 (DNA gyrase): 8.47

SMILES: CCOC(=O)C1COc2cc(CNC3CCN(CCn4c(=O)ccc5ccc(C#N)cc54)CC3)ccc2O1 (centres undefined)
MIC (Staphylococcus aureus [1]): > 16 µg/mL
MIC (Escherichia coli [2]): > 16 µg/mL

SMILES: CN1C(=O)COc2ccc(CNC3CCN(CCn4c(=O)ccc5ccc(C#N)cc54)CC3)cc21
MIC (Staphylococcus aureus [1]): 8 µg/mL (≈ 17 µM)
MIC (Escherichia coli [2]): 16 µg/mL (≈ 33.9 µM)

Results, then the compound that gave them:

MIC (Staphylococcus aureus [1]): 2 µg/mL (≈ 4.61 µM)
MIC (Escherichia coli [2]): 2 µg/mL (≈ 4.61 µM)
SMILES: N#Cc1cnn2ccc(=O)n(CCN3CCC(NCc4cc5c(cn4)OCCC5)CC3)c12

MIC (Staphylococcus aureus [1]): 1 µg/mL (≈ 2.13 µM)
MIC (Escherichia coli [2]): > 16 µg/mL
SMILES: O=c1c2ccccc2c2ccccc2n1CCN1CCC(NCc2cc3c(cn2)OCCC3)CC1

MIC (Staphylococcus aureus [1]): 1 µg/mL (≈ 2.39 µM)
MIC (Escherichia coli [2]): 16 µg/mL (≈ 38.2 µM)
SMILES: O=c1ccc2ccccc2n1CCN1CCC(NCc2cc3c(cn2)OCCC3)CC1

MIC (Staphylococcus aureus [1]): < 0.125 µg/mL
MIC (Escherichia coli [2]): 0.25 µg/mL (≈ 0.565 µM)
SMILES: N#Cc1ccc2ccc(=O)n(CCN3CCC(NCc4ccc5c(c4)CCCO5)CC3)c2c1

MIC (Staphylococcus aureus [1]): 0.125 µg/mL (≈ 0.282 µM)
MIC (Escherichia coli [2]): 0.5 µg/mL (≈ 1.13 µM)
SMILES: N#Cc1ccc2ccc(=O)n(CCN3CCC(NCc4cc5c(cn4)OCCC5)CC3)c2c1
